Key:
gastric secretions = experiment: anti-gastric secretion activity (Shay, pylorus-ligated rats), total acidity of gastric juice; assay type: in vivo, rat (male); details: 10 mg/kg, intraduodenally, 3 hours
Description: (1) Determination of the anti-gastric secretion activity
The technique used is described by H. SHAY et al. in Gastroenterology, 5, 43, (1945).
Male rats were used weighing about 200 g (10 animals per lot) which had been without food for 48 hours but were allowed an 8% glucose solution ad libitum. After the rats were slightly anesthetized with ether, the pylorus of each was ligated. After the end of the operation, the compound to be tested was administered intraduodenally in different doses, or in the case of the control animals, a 0.5% solution of carboxymethylcellulose was administered intraduodenally, after which the abdominal incision was sutured.
Three hours later, the animals were sacrificed and their stomachs removed, after ligating the esophagus. The gastric juice was removed and centrifuged. The volume of gastric juice was then determined and the total acidity was established by titrating a 100 μl sample of gastric juice to a pH of 7 by means of 1/10 N aqueous sodium hydroxide solution.
The percentages of variation in total acidity between gastric secretions of the test and control animals were calculated, with the results appearing below.

[1] = test system: stress ulcers in the stomachs of rats; experiment: anti-ulcer activity, stress ulcer (stress and cold); assay type: in vivo, rat (female); details: 10 mg/kg, by esophageal tube
Description: (2) Determination of anti-ulcer activity
The technique consists in inducing ulcers in the stomachs of rats by stress (stress and cold). The technique used is described by E. C. SENAY and R. J. LEVINE, Proc. Soc. Exp. Biol., 124, 1221 (1967).
Female rats of 150 g were used (5 animals per lot) which have fasted for 48 hours with water ad libitum and glucose solution for 8 hours. The animals were given the compound being tested, or 0.5% solution of carboxymethylcellulose for the control animals, by esophageal tube. Two hours later the animals were bundled in a jacket of netting. Their paws were tied and the entire unit was placed in a refrigerator at 8° C. for two hours. The rats were released and killed with ether.
Their stomachs were opened along the greater curvature and examined with a binocular magnifier. The seriousness of the lesions was rated from 0 to 3 for each stomach.
For each lot of the rats, the average intensity of the ulcerations was determined. The degree of ulceration for the test animals was determined and compared with the control animals for each lot.

acute toxicity (LD50) = details: mouse, in vivo, po; orally in mice
Description: (3) Determination of acute toxicity
The LD50 was evaluated after administration of the products orally in mice.

Compound | Anti-secretion activity: Acid conc. (% variation as compared with the controls) (gastric secretions) [%] | Anti-ulcer activity: Ulceration (% variation as compared with the controls) [1] [%] | LD50 (acute toxicity (LD50)) [mg/kg]
COc1cc(C(=O)/C=C/C(=O)O)ccc1O [Example 1, (E) 4-(3-methoxy-4-hydroxyphenyl)-4-oxobuten-2-oic acid] | -90 | -89 | 1000
O=C(O)/C=C/C(=O)c1ccc2c(c1)OCCO2 [Example 2, (E) 4-(2,3-dihydrobenzodioxine-6-yl)-4-oxobuten-2-oic acid] | -41 | -33 | 750

— patent publication US4500731A, “Derivatives of 4-phenyl-4-oxobuten-2-oic acid, pharmaceutical compositions containing them, and therapeutic uses for them” (Roussel Uclaf, priority 1981, dated 1985)
